Earlier results on 1 compound are cited in US5888536A (Chinoin Ltd., priority 1994, dated 1999).

On to `C#CCN(C)[C@H](C)Cc1ccccc1` [selegilin, (-)-[N-α-dimethyl-N-(2-propynylphenylethylamine)]], for which the solubility in chloroform (chloroform) is 1 g/5 ml. The solubility in methanol (methanol) was 1 g/3 ml. Besides, the solubility in water (water) is recorded as 1 g/3 ml.
